According to paper PMC12395388 (Regulatory toxicology and pharmacology : RTP, 2024):
Where two headings read alike, the source gives them in different places.

Experiments:
[1] = system: Salmonella typhimurium TA1535; assay: Preincubation Ames test, strain TA1535; format: cell-based; conditions: for Effectiveness of time of preincubation for most effective S9: 30 vs 60 min; for Mutagenic response in TA1535: any activation condition and preincubation time; for Ames response when tested as an aqueous suspension: 60 min preincubation, TA1535
[2] = system: Ames tester strains; conditions: published/posted results; ref representative Ames references of Table 2; cited from earlier work
[3] = system: Salmonella typhimurium TA100; assay: Preincubation Ames test, strain TA100; format: cell-based; conditions: strain TA100; for Effectiveness of time of preincubation for most effective S9: 30 vs 60 min
[4] = ref IARC (https://monographs.iarc.who.int/agents-classified-by-the-iarc/); cited from earlier work
[5] = system: E. coli WP2 uvrA (pKM101); assay: Preincubation Ames test, strain WP2 uvrA; format: cell-based, Escherichia coli; conditions: for Effectiveness of time of preincubation for most effective S9: strain WP2 uvrA (pKM101), 30 vs 60 min; for Mutagenic response in WP2 uvrA (pKM101): any activation condition and preincubation time
[6] = in vivo; cited from earlier work
[7] = system: Salmonella typhimurium tester strains TA98, TA100, TA1535, and TA1537, and Escherichia coli strain WP2 uvrA (pKM101); assay: Preincubation Ames test, five tester strains; format: cell-based; conditions: for Effect of length of preincubation on positive responses: 30 min vs 60 min, over all strains
[8] = parent drug with nitrite; ref Ozhan and Alpertunga, 2003; cited from earlier work
[9] = system: CHO, V79, L5178Y/Tk+/−, TK6, HepaRG cells; conditions: cited from earlier work
[10] = published by FDA as of September 4, 2024, ref FDA, 2024a; cited from earlier work
[11] = ref as given in Table 2 Notes (Kerklaan et al., 1981; Zeiger et al., 1972); cited from earlier work
[12] = system: Drosophila; conditions: ref Vogel and Nivard, 1993; cited from earlier work
[13] = species as in value; ref as given in Table 2 Notes; cited from earlier work
[14] = PC1 most potent, PC5 least potent; ref FDA, 2024a; cited from earlier work
[15] = system: Salmonella typhimurium TA1537; assay: Preincubation Ames test, strain TA1537; conditions: for Effectiveness of time of preincubation for most effective S9: 30 vs 60 min
[16] = system: Salmonella typhimurium TA98; assay: Preincubation Ames test, strain TA98; format: cell-based; conditions: strain TA98; 30 vs 60 min
[17] = ref Wogan et al., 1975, cited from earlier work
[18] = system: yeast; conditions: cited from earlier work
[19] = cell lines as named in the value, ref as given in Table 2 Notes
[20] = listed as N-nitroso-methylphenylamine

CCCCN(CCCC)N=O [SM-9, N,N-Dibutylnitrous amide]
Effectiveness of time of preincubation for most effective S9 ([1]; strain TA1535): 60min = 30min
Ames response (all S9-mediated except where noted) [2]: Positive
Effectiveness of time of preincubation for most effective S9 [3]: 30min ≥60min
IARC classification [4]: Group 2B
Effectiveness of time of preincubation for most effective S9 [5]: 60min ≥30min

CCOC(CN(CC(OCC)OCC)N=O)OCC [SM-12, N,N-Bis(2,2-diethoxyethyl)nitrous amide]
Mutagenic response in TA1535 [1]: only positive strain
More effective %S9 in S9 mix of more effective S9 (H or R) ([1]; strain TA1535, 10% vs 30% S9 in the S9 mix): 30% only
Effectiveness of time of preincubation for most effective S9 ([1]; strain TA1535): 60min = 30min
Effectiveness of hamster vs. rat S9s for each positive strain ([1]; strain TA1535, H = hamster liver S9, R = rat liver S9): H only
Carcinogenicity in rats [6]: noncarcinogenic in rats
Specificity for G:C or A:T target tester strains ([7]; G:C target: TA98, TA100, TA1535, TA1537, A:T target: WP2 uvrA (pKM101)): positive only in G:C detecting strains

CNCCC(Oc1ccc(C(F)(F)F)cc1)c1ccccc1 (stereo not shown) [Fluoxetine]
Genotoxicity under nitrosating conditions [8]: genotoxic under nitrosating conditions

Fc1ccc([C@@H]2CCNC[C@H]2COc2ccc3c(c2)OCO3)cc1 [Paroxetine]
Genotoxicity under nitrosating conditions [8]: Paroxetine genotoxic under nitrosating conditions ([Ozhan and Alpertunga, 2003])

CCN(CC)N=O [SM-2, N,N-Diethylnitrous amide]
Mutagenicity/genotoxicity in mammalian cells in vitro [9, 19]: mutagenic/genotoxic in CHO, L5178Y/Tk^+/−, V79, TK6, HepaRG cells
Ames response (all S9-mediated except where noted) [2]: Positive; preincubation more sensitive
AI limit [10]: 26.5 ng/day
Mutagenicity in host-mediated assay [11]: Mutagenic
Recombination in Drosophila [12]: recombinogen in Drosophila
Mutagenicity in TGR assay [13]: Mutagenic in rat and mouse TGR, error-corrected sequencing

CN(C)N=O [SM-1, N,N-Dimethylnitrous amide]
Mutagenicity/genotoxicity in mammalian cells in vitro [9, 19]: mutagenic/genotoxic in CHO, V79, L5178Y/Tk^+/−, HepaRG cells
Effectiveness of time of preincubation for most effective S9 ([1]; strain TA1535): 60min >30min
Ames response (all S9-mediated except where noted) [2]: Positive; preincubation more sensitive
AI limit [10]: 96 ng/day
Mutagenicity in host-mediated assay [11]: Mutagenic
Effectiveness of time of preincubation for most effective S9 [3]: 60min >30min
Recombination in Drosophila [12]: recombinogen in Drosophila
IARC classification [4]: Group 2A
Effect of length of preincubation on positive responses ([7]; listed as NDMA): benefited from a preincubation of 60 min compared with 30 min
Mutagenicity in TGR assay [13]: Mutagenic in mouse and rat TGR
Effectiveness of time of preincubation for most effective S9 [5]: 60min = 30min

O=NN1CC2CC(C1)c1cc3nccnc3cc12 [NDSRI-15, 8-Nitroso-7,8,9, 10-tetrahydro-6H-6, 10-methanoazepino[4,5-g]quinoxaline]
CPCA Potency Category (PC) [14]: PC3
Effectiveness of time of preincubation for most effective S9 ([1]; strain TA1535): 60min ≥30min
Effectiveness of time of preincubation for most effective S9 ([15]; strain TA1537): 60min ≥30min
AI limit [10]: 400 ng/day
Effectiveness of time of preincubation for most effective S9 [16]: 60min ≥30min
Effectiveness of time of preincubation for most effective S9 [3]: 60min = 30min
Effectiveness of hamster vs. rat S9s for each positive strain ([3]; H = hamster liver S9, R = rat liver S9): H only
Effect of length of preincubation on positive responses [7]: benefited from a preincubation of 60 min compared with 30 min
Effectiveness of time of preincubation for most effective S9 [5]: 60min = 30min

Nc1nc2ncc(CN(N=O)c3ccc(C(=O)NC(CCC(=O)O)C(=O)O)cc3)nc2c(=O)[nH]1 (stereo not shown) [NDSRI-28, 2-[[4-[(2-Amino-4-oxo-3 H-pteridin-6-yl)methyl-nitrosoamino)benzoyl]amino]pentanedioic acid]
CPCA Potency Category (PC) [14]: PC4
Ames response when tested as an aqueous suspension [1]: d Weakly positive/equivocal when tested as an aqueous suspension: see text and Supplementary Material.
Ames response when tested as an aqueous suspension ([1]; listed as N-nitroso-folic acid): equivocal or weakly positive
Ames response (all S9-mediated except where noted) [2]: Positive
AI limit [10]: 1500 ng/day
Lung tumors in neonatal mouse cancer bioassay [17]: Weak positive for lung tumors in neonatal mouse assay ([Wogan et al., 1975])
Lung tumors in neonatal mouse cancer bioassay ([17]; listed as N-nitroso-folic acid): induced lung tumors

O=NN(c1ccccc1)c1ccccc1 [SM-11, N,N-Diphenylnitrous amide]
IARC classification [4]: Group 3

CN(CCCC(=O)O)N=O [SM-7, 4-[Methyl(nitroso)amino] butanoic acid]
CPCA Potency Category (PC) [14]: PC4
Mutagenicity/genotoxicity in mammalian cells in vitro [9, 19]: Mutagenic/genotoxic in yeast, TK6, HepaRG cells ([Mehta and Von Borstel, 1984]; [Li et al., 2022]; [Seo et al., 2023])
AI limit [10]: 1500 ng/day
Mutagenicity/genotoxicity in yeast ([18]; ref Larimer et al., 1980, Mehta and Von Borstel, 1984): Mutagenic/genotoxic in yeast, TK6, HepaRG cells ([Mehta and Von Borstel, 1984]; [Li et al., 2022]; [Seo et al., 2023])

CN(N=O)c1ccccc1 [SM-6, N-Methyl-N-phenylnitrous amide]
Mutagenicity/genotoxicity in mammalian cells in vitro [9]: Mutagenic/genotoxic in yeast, TK6, HepaRG cells
Mutagenic response in TA1535 [1, 20]: negative
Mutagenic response in TA1535 ([1]; listed as NMPA): not positive
Mutagenic response in TA1537 ([15]; any activation condition and preincubation time, listed as N-nitroso-methylphenylamine): positive
Effectiveness of time of preincubation for most effective S9 ([15]; strain TA1537): 60min = 30min
Effectiveness of hamster vs. rat S9s for each positive strain ([15]; strain TA1537, H = hamster liver S9, R = rat liver S9): H only
Mutagenicity/genotoxicity in yeast [18]: Mutagenic/genotoxic in yeast, TK6, HepaRG cells
Mutagenic response in WP2 uvrA (pKM101) [5, 20]: positive
Mutagenic response in WP2 uvrA (pKM101) ([5]; listed as NMPA): mutagenic
Effectiveness of time of preincubation for most effective S9 [5]: 60min = 30min
